The target of the test is T1, full length SGK1 (Homo sapiens, UniProt O00141).
T1 construct: 125 μM full length SGK1 (Life Technologies Part #PR7358A); purchased Life Technologies PR7358A
T1 sequence (O00141 1-431): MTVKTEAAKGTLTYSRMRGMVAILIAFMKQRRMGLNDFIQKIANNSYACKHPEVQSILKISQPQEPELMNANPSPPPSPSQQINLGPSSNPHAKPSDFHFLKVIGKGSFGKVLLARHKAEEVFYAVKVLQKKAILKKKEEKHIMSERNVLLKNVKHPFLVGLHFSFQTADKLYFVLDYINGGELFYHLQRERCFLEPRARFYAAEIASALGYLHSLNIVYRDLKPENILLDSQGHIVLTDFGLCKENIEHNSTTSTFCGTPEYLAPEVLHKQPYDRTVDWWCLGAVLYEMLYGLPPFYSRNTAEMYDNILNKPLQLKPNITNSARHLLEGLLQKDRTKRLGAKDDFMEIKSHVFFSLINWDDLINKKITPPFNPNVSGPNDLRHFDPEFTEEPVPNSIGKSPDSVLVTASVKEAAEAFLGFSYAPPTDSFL
In words: SGK1 inhibition Assay A (Caliper LabChip electrophoretic separation of fluorescent peptide substrate and phosphorylated product). The class given is biochemical. The note with it: Assay A; 20 μM ATP, 40 min incubation; read-out: SGK1 IC50.

Structures can show the parent of a compound that is named as a salt.

By IC50 is commonly meant the concentration that gives 50% inhibition. Regarding `Cc1cc(C(=O)N[C@@H]2CCCN(c3cc(-c4ccc(S(C)(=O)=O)cc4)n4ncnc(N)c34)C2)ccn1` [Example 33, (R)-N-(1-(4-amino-7-(4-(methylsulfonyl)phenyl)pyrrolo[2,1-f][1,2,4]triazin-5-yl)piperidin-3-yl)-2-methylisonicotinamide], the IC50 came to 9 nM.
The result for `C#Cc1cccc(C(=O)N[C@@H]2CCCN(c3cc(-c4ccc(S(C)(=O)=O)cc4)n4ncnc(N)c34)C2)c1` [Example 34, (R)-N-(1-(4-amino-7-(4-(methylsulfonyl)phenyl)pyrrolo[2,1-f][1,2,4]triazin-5-yl)piperidin-3-yl)-3-ethynylbenzamide] reads 24 nM; that for `Cc1cc(C(=O)N[C@@H]2CCCN(c3cc(-c4ccc(S(C)(=O)=O)cc4)n4ncnc(N)c34)C2)cc(C)n1` [Example 35, (R)-N-(1-(4-amino-7-(4-(methylsulfonyl)phenyl)pyrrolo[2,1-f][1,2,4]triazin-5-yl)piperidin-3-yl)-2,6-dimethylisonicotinamide], 21 nM.
Under `CS(=O)(=O)c1ccc(-c2cc(N3CCC[C@@H](NC(=O)c4cn5ccccc5n4)C3)c3c(N)ncnn23)cc1` [Example 36] stands 41 nM; under `CS(=O)(=O)c1ccc(-c2cc(N3CCC[C@@H](NC(=O)c4cnc[nH]4)C3)c3c(N)ncnn23)cc1` [Example 37, (R)-N-(1-(4-amino-7-(4-(methylsulfonyl)phenyl)pyrrolo[2,1-f][1,2,4]triazin-5-yl)piperidin-3-yl)-1H-imidazole-5-carboxamide, TFA], 136 nM.
The result for `CS(=O)(=O)c1ccc(-c2cc(N3CCC[C@@H](NC(=O)c4ccn[nH]4)C3)c3c(N)ncnn23)cc1` [Example 38, (R)-N-(1-(4-amino-7-(4-(methylsulfonyl)phenyl)pyrrolo[2,1-f][1,2,4]triazin-5-yl)piperidin-3-yl)-1H-pyrazole-5-carboxamide] reads 22 nM; that for `CS(=O)(=O)c1ccc(-c2cc(N3CCC[C@@H](NC(=O)c4ccnc(N)c4)C3)c3c(N)ncnn23)cc1` [Example 39, (R)-2-amino-N-(1-(4-amino-7-(4-(methylsulfonyl)phenyl)pyrrolo [2,1-f][1,2,4]triazin-5-yl)piperidin-3-yl)isonicotinamide], 48 nM.
Turning to `Cc1cc(C(=O)N[C@@H]2CCCN(c3cc(-c4ccc(S(C)(=O)=O)cc4)n4ncnc(N)c34)C2)cc(=O)[nH]1` [Example 40, (R)-N-(1-(4-amino-7-(4-(methylsulfonyl)phenyl)pyrrolo[2,1-f][1,2,4]triazin-5-yl)piperidin-3-yl)-6-methyl-2-oxo-1,2-d1Hydropyridine-4-carboxamide, TFA], the IC50 is 115 nM.
The result for `CS(=O)(=O)c1ccc(-c2cc(N3CCC[C@@H](NC(=O)c4ccns4)C3)c3c(N)ncnn23)cc1` [Example 41, (R)-N-(1-(4-amino-7-(4-(methylsulfonyl)phenyl)pyrrolo[2,1-f][1,2,4]triazin-5-yl)piperidin-3-yl)isothiazole-5-carboxamide, TFA] reads 5 nM.
Consider `CS(=O)(=O)c1ccc(-c2cc(N3CCC[C@@H](NC(=O)c4cn5ccncc5n4)C3)c3c(N)ncnn23)cc1` [Example 42, (R)-N-(1-(4-amino-7-(4-(methylsulfonyl)phenyl)pyrrolo 2,1-f][1,2,4]triazin-5-yl)piperidin-3-yl)imidazo[1,2-alpyrazine-2-carboxamide, TFA], for which the IC50 amounted to 187 nM.
Take `CS(=O)(=O)c1ccc(-c2cc(N3CCC[C@@H](NC(=O)c4cc[nH]c(=O)c4)C3)c3c(N)ncnn23)cc1` [Example 43, (R)-N-(1-(4-amino-7-(4-(methylsulfonyl)phenyl)pyrrolo[2,1-f][1,2,4]triazin-5-yl)piperidin-3-yl)-2-oxo-1,2-d1Hydropyridine-4-carboxamide, TFA]: the IC50 was 79 nM.
The result for `CS(=O)(=O)c1ccc(-c2cc(N3CCC[C@@H](NC(=O)c4cn5c(n4)CCCC5)C3)c3c(N)ncnn23)cc1` [Example 44] reads 735 nM; that for `CS(=O)(=O)c1ccc(-c2cc(N3CCC[C@@H](NC(=O)c4cn5ccsc5n4)C3)c3c(N)ncnn23)cc1` [Example 45, (R)-N-(1-(4-amino-7-(4-(methylsulfonyl)phenyl)pyrrolo [2,1-f][1,2,4]triazin-5-yl)piperidin-3-yl)imidazo[2,1-b]thiazole-6-carboxamide], 28 nM; that for `COc1cc(C(=O)N[C@@H]2CCCN(c3cc(-c4ccc(S(C)(=O)=O)cc4)n4ncnc(N)c34)C2)ccn1` [Example 46, (R)-N-(1-(4-amino-7-(4-(methylsulfonyl)phenyl)pyrrolo[2,1-f][1,2,4]triazin-5-yl)piperidin-3-yl)-2-methoxyisonicotinamide, TFA], 10 nM.
For `CS(=O)(=O)c1ccc(-c2cc(N3CCC[C@@H](NC(=O)c4ccnc(C#N)c4)C3)c3c(N)ncnn23)cc1` [Example 47, (R)-N-(1-(4-amino-7-(4-(methylsulfonyl)phenyl)pyrrolo[2,1-f][1,2,4]triazin-5-yl)piperidin-3-yl)-2-cyanoisonicotinamide, TFA], the IC50 was determined as 44 nM.
The result for `Cn1cnc(C(=O)N[C@@H]2CCCN(c3cc(-c4ccc(S(C)(=O)=O)cc4)n4ncnc(N)c34)C2)c1` [Example 48, (R)-N-(1-(4-amino-7-(4-(methylsulfonyl)phenyl)pyrrolo[2,1-f][1,2,4]triazin-5-yl)piperidin-3-yl)-1-methyl-1H-imidazole-4-carboxamide] reads 307 nM; that for `COc1ccccc1C(=O)N[C@@H]1CCCN(c2cc(-c3ccc(S(C)(=O)=O)cc3)n3ncnc(N)c23)C1` [Example 49, (R)-N-(1-(4-amino-7-(4-(methylsulfonyl)phenyl)pyrrolo[2,1-f][1,2,4]triazin-5-yl)piperidin-3-yl)-2-methoxybenzamide], 43 nM; that for `CS(=O)(=O)c1ccc(-c2cc(N3CCC[C@@H](NC(=O)c4cccnc4)C3)c3c(N)ncnn23)cc1` [Example 50, (R)-N-(1-(4-amino-7-(4-(methylsulfonyl)phenyl)pyrrolo [2,1-f][1,2,4]triazin-5-yl)piperidin-3-yl)nicotinamide, TFA], 69 nM.
Under `CS(=O)(=O)c1ccc(-c2cc(N3CCC[C@@H](NC(=O)c4cccc(-c5cnco5)c4)C3)c3c(N)ncnn23)cc1` [Example 51, (R)-N-(1-(4-amino-7-(4-(methylsulfonyl)phenyl)pyrrolo[2,1-f][1,2,4]triazin-5-yl)piperidin-3-yl)-3-(oxazol-5-yl)benzamide] stands 13 nM; under `Cc1ccccc1C(=O)N[C@@H]1CCCN(c2cc(-c3ccc(S(C)(=O)=O)cc3)n3ncnc(N)c23)C1` [Example 52, (R)-N-(1-(4-amino-7-(4-(methylsulfonyl)phenyl)pyrrolo[2,1-f][1,2,4]triazin-5-yl)piperidin-3-yl)-2-methylbenzamide], 210 nM.
Consider `CS(=O)(=O)c1ccc(-c2cc(N3CCC[C@@H](NC(=O)c4cccc(F)c4)C3)c3c(N)ncnn23)cc1` [Example 53, (R)-N-(1-(4-amino-7-(4-(methylsulfonyl)phenyl)pyrrolo[2,1-f][1,2,4]triazin-5-yl)piperidin-3-yl)-3-fluorobenzamide], for which the IC50 worked out at 15 nM.
Take `CS(=O)(=O)c1ccc(-c2cc(N3CCC[C@@H](NC(=O)c4ccn5ccnc5c4)C3)c3c(N)ncnn23)cc1` [Example 54]: the IC50 turned out to be 596 nM.
Under `COc1ccc(OC)c(C(=O)N[C@@H]2CCCN(c3cc(-c4ccc(S(C)(=O)=O)cc4)n4ncnc(N)c34)C2)c1` [Example 56, (R)-N-(1-(4-amino-7-(4-(methylsulfonyl)phenyl)pyrrolo[2,1-f][1,2,4]triazin-5-yl)piperidin-3-yl)-2,5-dimethoxybenzamide, TFA] stands 486 nM.
For `COc1ccc(C)cc1C(=O)N[C@@H]1CCCN(c2cc(-c3ccc(S(C)(=O)=O)cc3)n3ncnc(N)c23)C1` [Example 57, (R)-N-(1-(4-amino-7-(4-(methylsulfonyl)phenyl)pyrrolo[2,1-f][1,2,4]triazin-5-yl)piperidin-3-yl)-2-methoxy-5-methylbenzamide, TFA], the IC50 was 112 nM.
The result for `CS(=O)(=O)c1ccc(-c2cc(N3CCC[C@@H](NC(=O)c4ccccc4OC(F)F)C3)c3c(N)ncnn23)cc1` [Example 58, (R)-N-(1-(4-amino-7-(4-(methylsulfonyl)phenyl)pyrrolo[2,1-f][1,2,4]triazin-5-yl)piperidin-3-yl)-2-(difluoromethoxy) benzamide, TFA] reads 854 nM.
The result for `CS(=O)(=O)c1ccc(-c2cc(N3CCC[C@@H](NC(=O)c4ccccc4OCCO)C3)c3c(N)ncnn23)cc1` [Example 59, (R)-N-(1-(4-amino-7-(4-(methylsulfonyl)phenyl)pyrrolo[2,1-f][1,2,4]triazin-5-yl)piperidin-3-yl)-2-(2-hydroxyethoxy) benzamide] reads 10 nM.
Under `COc1ncccc1C(=O)N[C@@H]1CCCN(c2cc(-c3ccc(S(C)(=O)=O)cc3)n3ncnc(N)c23)C1` [Example 60, (R)-N-(1-(4-amino-7-(4-(methylsulfonyl)phenyl)pyrrolo[2,1-f][1,2,4]triazin-5-yl)piperidin-3-yl)-2-methoxynicotinamide] stands 130 nM; under `CS(=O)(=O)c1ccc(-c2cc(N3CCC[C@@H](NC(=O)c4cnco4)C3)c3c(N)ncnn23)cc1` [Example 61, (R)-N-(1-(4-amino-7-(4-(methylsulfonyl)phenyl)pyrrolo[2,1-f][1,2,4]triazin-5-yl)piperidin-3-yl)oxazole-5-carboxamide], 33 nM.

These data come from US20260250290A1 (BRISTOL-MYERS SQUIBB COMPANY, priority 2023, published 2026).
